Experimental data: US8105797B2, “Diagnostic test” (priority 2004, dated 2012)

Test system: PBMCs from healthy unexposed BCG-vaccinated donors
Assay type: cell-based, human

Sequence	response of BCG-vaccinated unexposed donor to individual peptide
ESLVSDGLPGVKAAL (listed as Mycobacterium tuberculosis) [61-75, from Rv3878]	responded
DTFYDRAQEYSQVLQ (listed as Mycobacterium tuberculosis) [26-40, from Rv3879c, pool 1]	responded
YFIRMWNQAALAMEV (listed as Mycobacterium tuberculosis) [139-153, from pool 2 of Rv3873]	responded
LTATNFFGINTIPIA [119-133]	responded
AAKLAGLVFPQPPAP (listed as Mycobacterium tuberculosis) [16-30, from Rv3878]	responded
LDPGASQSTTNPIFG (listed as Mycobacterium tuberculosis) [peptide 174-188, from Rv3873]	responded
